Consider one compound from patent publication US20230241233A1, “ORAL PHARMACEUTICAL COMPOSITIONS COMPRISING LIPID CONJUGATES” (UNIVERSITAT HEIDELBERG, priority 2020, published 2023).

Data set [1] is described as follows: Pharmacokinetic evaluation of octreotide lipid conjugate in beagle dogs (Charles River Study No 47656 PAC). The format is in vivo. The following applies: dog, plasma, conjugate dose 0 mg, oral gavage octreotide 0.12 mg/kg, vs iv bolus 0.01 mg/kg, read-out: abs. bioavailability. The protocol:
Between the cycles, a washout phase of one week was performed.
First, animals received an intravenous bolus injection of 0.01 mg/kg octreotide. The consecutive administrations were given orally by gavage. After a wash-out of one week animals #1 and #2 received 0.12 mg/kg free octreotide and animals #3 and #4 received 0.12 mg/kg octreotide with 0.3 mg/kg lipid-conjugate. After a wash-out of one week animals #1 and #2 received 0.12 mg/kg free octreotide with 1 mg/kg lipid-conjugate and animals #3 and #4 received 0.12 mg/kg octreotide with 3 mg/kg lipid-conjugate. After a wash-out of one week animals #1 and #2 received 0.12 mg/kg free octreotide with 10 mg/kg lipid-conjugate and animals #3 and #4 received 0.12 mg/kg octreotide with 30 mg/kg lipid-conjugate. After a wash-out of one week animals #1 and #2 received 0.012 mg/kg free octreotide with 1 mg/kg lipid-conjugate and animals #3 and #4 received 1.2 mg/kg octreotide with 1 mg/kg lipid-conjugate.

The nature of data set [2]: Bioavailability of octreotide SEDDS formulation in beagle dogs. The settings on record: dog, plasma, oral, 1.5 mg/animal.
Description: The administration of octreotide in SEDDS formulation was investigated in a study in beagle dogs at Charles River, Evreux, France (Study No 47656 PAC and 48482 PAC). […] Animals were treated with octreotide in SEDDs formulation, or octreotide alone, prepared in citrate buffer (100 mM, pH 5.5), by single oral administration via gavage. For determination of the absolute bioavailability plasma concentrations after intravenous bolus injection (in PBS) were determined. Between the cycles, a wash-out phase of one week was performed.
Plasma concentrations of all investigated peptide therapeutics were determined by quantification using a validated UPLC-MS/MS assay (according to the pertinent recommendations for bioanalytical method development of the US FDA and EMA). All assays were performed on a Waters Xevo TQ-XS triple quadrupole tandem mass spectrometer coupled to a Waters Acquity classic UPLC using C18 columns, heated electrospray ionization (ESI), and selected ion monitoring in the positive ion mode.

For orientation: bioavailability means dose-corrected exposure relative to a reference, in per cent. For the compound `C[C@@H](O)[C@@H]1NC(=O)[C@H](CCCCN)NC(=O)[C@@H](Cc2c[nH]c3ccccc23)NC(=O)[C@H](Cc2ccccc2)NC(=O)[C@@H](NC(=O)[C@H](N)Cc2ccccc2)CSSC[C@@H](C(=O)N[C@H](CO)[C@@H](C)O)NC1=O` [octreotide], the bioavailability in data set [1] and in data set [2] was 2.1% each time.
